Legend:
[1] = tested on: pp 140, a known RSK substrate; experiment: pp 140 phosphorylation in HUVEC cells; assay type: cell-based, human; conditions: 60 μM, 2 hr; with or without 500 nM phorbol dibutyrate
Experimental: HUVEC cells were seeded at a density of 3×10^5 cells per 35 mm dish and were maintained in complete growth medium. […] The cells were harvested and lysates prepared for SDS-PAGE and immunoblot analysis. The phosphorylation state of pp 140 was determined using a phosphospecific antibody generated against the phosphorylated peptide—LAS(P)TND.

HUVEC cells = experiment: VEGF-induced capillary network formation in HUVEC cells; assay type: cell-based, human; conditions: 60 μM, 10 ng/ml VEGF, 20 hours
Experimental: Interfering with tube formation is a characteristic common to anti-angiogenic treatments. HUVEC cells were seeded at a density of 1×10^5 cells per well in 24-well culture dishes coated in growth factor-reduced Matrigel (BD Biosciences). […] The cells were incubated at 37° C. for 20 hours. Images of the cells were captured for analysis of the capillary-like network.

[2] = tested on: mouse primary peritoneal macrophages; experiment: LPS-induced iNOS expression in primary peritoneal macrophages; assay type: cell-based; conditions: 60 μM, 1 μg/ml LPS, 24 hours
p140, a RSK substrate [3] = experiment: PDB-induced p140 phosphorylation in MCF-10A cells (immunoblot); assay type: cell-based, human
Experimental: (§1) To determine whether SL0101-1 inhibits RSK in intact cells, phosphorylation of p140, a RSK substrate of unknown function, was examined in a human breast cancer cell line, MCF-7. MCF-7 and MCF-10A cells were pre-incubated with vehicle, 50 μM U0126 or the indicated concentration of SL0101-1 for 3 hr (FIG. 8D). Cells were treated with 500 nM PDB for 30 min prior to lysis. Protein concentration of lysates was measured and lysates were electrophoresed, transferred and immunoblotted. […] Pre-incubation of cells with 100 μM SL0101-1 abrogates phorbol dibutyrate (PDB)-induced p140 phosphorylation as does 50 μM U0126, a MEK inhibitor.
(§2) Cell Culture. For proliferation studies cells were seeded at 2500 to 5000 cells per well in 96 well tissue culture plates in the appropriate medium as described by American Type Culture Collection. After 24 hr, the medium was replaced with medium containing compound or vehicle as indicated. Cell viability was measured at indicated time points using CellTiter-Glo™ assay reagent (Promega) according to manufacturer's protocol. For in vivo inhibition studies, cells were seeded at 2.5×10^5 cells/well in 12 well cell culture clusters. After 24 hr, the cells were serum starved for 24 hr then incubated with compound or vehicle for 3 hr prior to a 30 min PDB stimulation. Cells were lysed as previously described (J. Biol. Chem. 273, 13317-13323 (1998)). […]

p140, a RSK substrate [4] = experiment: PDB-induced p140 phosphorylation in MCF-7 cells (immunoblot); assay type: cell-based, human; conditions: 100 μM, 3 hr pre-incubation, 500 nM PDB 30 min
Experimental: as §1, §2

MCF-10A cells = experiment: MCF-10A cell proliferation; assay type: cell-based, human; conditions: 50 μM (FIG. 8A)
Experimental: The cell number was measured after 48 h of treatment. Values given are the fold proliferation as a percentage of that observed with vehicle-treated cells. Points, mean (n=2 in quadruplicate); bars=SD.
FIGS. 8A-8D SL0101-1 inhibits the proliferation of cancer cells but not normal cells. […] Cell viability was measured at indicated time points. Proliferation assays were conducted using CellTiter-Glo Luminescent Cell Viability Assay (Promega), performed 44 hrs after treatment for FIGS. 8A &B and at indicated points for FIG. 8C. The data are expressed relative to time 0.
Cell Culture. For proliferation studies cells were seeded at 2500 to 5000 cells per well in 96 well tissue culture plates in the appropriate medium as described by American Type Culture Collection. After 24 hr, the medium was replaced with medium containing compound or vehicle as indicated. Cell viability was measured at indicated time points using CellTiter-Glo™ assay reagent (Promega) according to manufacturer's protocol. For in vivo inhibition studies, cells were seeded at 2.5×10^5 cells/well in 12 well cell culture clusters. After 24 hr, the cells were serum starved for 24 hr then incubated with compound or vehicle for 3 hr prior to a 30 min PDB stimulation. Cells were lysed as previously described (J. Biol. Chem. 273, 13317-13323 (1998)). The lysates were normalized for total protein, electrophoresed and immunoblotted. For cell imaging, Ha-Ras-transformed NIH/3T3 cells were seeded on LABTEK II chamber slides (Nalge) at a density of 1×10^4 cells/well. After 24 hr, fresh medium was added the indicated compounds or vehicle. Images were taken 48 hr after treatment at a magnification of 20×.

MAPK, MEK, Raf and PKC = experiment: effect on upstream kinases of PDB-stimulated RSK phosphorylation in intact cells (immunoblot); assay type: cell-based, human
Experimental: as §1, §2

[5] = tested on: human umbilical vein endothelial cells (HUVEC); experiment: HUVEC wound migration assay; assay type: cell-based; conditions: 60 μM, 1 hr prior to wounding; up to 20 hr
Description: In these experiments, HUVEC were cells were subcultured to confluence in 35-mm plates. […] Scratches were made in the monolayer of cells using sterile, disposable micropipette tips. Images were captured—2 hr, 10 hr, and 20 hr after wounding. By 10 hr after wounding, the vehicle-treated cells at the wound edge have migrated toward the wound. Gaps in the monolayer behind the wound edge are apparent. The SL0101-treated cells have recovered from the wounding, however they show little signs of polarization toward the wound and no involvement of the cells behind the wound edge. At 20 hr, the vehicle-treated cells have migrated into the wound yet the gaps are still present behind the wound edge. The cells at the wound edge in the SL0101-treated well appear to have increased in size to fill the wound rather than migrate into the wound and the monolayered cells behind the wound edge remain tightly packed unlike the vehicle-treated cells. Accordingly the data support the premise that RSK inhibitors are useful tools to stop endothelial cell migration.

[6] = tested on: RSK activity (eEF2 phosphorylation); experiment: eEF2 phosphorylation in J774A.1 macrophages; assay type: cell-based, murine; conditions: J774A.1 cells
Description: The translocation step in mRNA translation is mediated by eEF2. […] This phosphorylation is produced by a highly specific kinase, EF2 kinase (EF2K). RSK phosphorylates and inactivates EF2K in response to mitogenic stimulations, which leads to a decrease in eEF2 phosphorylation (Wang, et al. Embo J 20:4370-9). Under conditions in which RSK activity is low, as during serum deprivation, eEF2 is phosphorylated by the active EF2K. However, stimulation of RSK activity by mitogens such as phorbol dibutyrate (PDB) results in reduced phosphorylation of eEF2 due to inactivation of EF2K by RSK. Therefore, the phosphorylation state of eEF2 is an indicator of RSK activity. […] The levels of total eEF2 were not altered by any of the treatments.

[7] = tested on: Yersinia pseudotuberculosis; assay type: cell-based; conditions: 60 μM, 4 hours prior to infection (MOI=25)

## CC(=O)O[C@@H]1[C@@H](OC(C)=O)[C@@H](O)[C@H](Oc2c(-c3ccc(O)cc3)oc3cc(O)cc(O)c3c2=O)O[C@H]1C [SL0101, kaempferol 3-O-(3″,4″-di-O-acetyl-α-L-rhamnopyranoside)]
[1]
  phosphorylation of pp 140: reduced the phosphorylation of pp 140
HUVEC cells
  capillary-like network formation: indistinguishable from those treated with SU1498
[2]
  LPS-induced iNOS expression: abrogates iNOS expression
p140, a RSK substrate [3]
  PDB-induced p140 phosphorylation: prevented the PDB-induced p140 phosphorylation
p140, a RSK substrate [4]
  PDB-induced p140 phosphorylation: abrogates
MCF-10A cells
  proliferation of MCF-10A cells: no effect on the growth
MAPK, MEK, Raf and PKC
  phosphorylation of RSK2: does not effect the phosphorylation of RSK2
[5]
  migration of HUVEC into wound: reduce the ability of the cells to migrate
[6]
  peEF2 levels: increases peEF2 levels
[7]
  live bacteria extracted from treated macrophages: fewer live bacteria are extracted

Source: patent US9040673B2, “Synthesis and identification of novel RSK-specific inhibitors” (University of Virginia Patent Foundation, priority 2009, dated 2015)
